Results: patent publication US20220331433A1, “NUCLEIC ACID-MEDIATED DELIVERY OF THERAPEUTICS” (The Regents of the University of California, priority 2019, published 2022)
Entries after “also recorded” stand apart in the source; their conditions may differ. Read-outs that look alike come from different tables or passages of the source. Each block holds one substance with its values, some of them ahead of it.

What was measured:
[1] = Stability of DNA in water and PBS (TEM); format: physicochemical; conditions: [DNA] 6 μg/mL
Procedure: Stability of DNA in water and PBS. DNA was prepared in PBS and diluted in H2O and then imaged. Final [DNA]=6 μg/mL.

[2] = DNA degradation in 10% FBS/PBS (agarose gel); format: physicochemical; conditions: 37° C., 0 to 48 h, [DNA] 100 μg/mL
Procedure: DNA Degradation in 10% FBS/PBS. A 1% (w/v) agarose gel in 1×Tris Acetate EDTA (TAE) containing 1 μg/mL ethidium bromide was used to characterize the degradation of DNA in 10% FBS/PBS over 48 hours. DNA was incubated with serum-containing PBS at 37° C. over time. Samples were stored in −20° C. to stop enzymatic degradation from nucleases at each time point. The concentration of DNA=100 μg/mL. The gel was run at 100 V for 40 minutes and DNA was imaged on a UV transilluminator (Fotodyne, Heartland, Wis.).
DNA Degradation in 10% FBS/PBS. To determine the stability of the DNA to serum exposure, DNA (100 μg/mL) was incubated with serum-containing PBS at 37° C. over a time period of 0 to 48 h. Samples were stored in −20° C. to stop enzymatic degradation from nucleases at each time point. […] It is likely that the nucleases in the serum-containing media are contributing to the degradation of DNA. It is possible to infer a delayed release of DOX due to this degradation of DNA overtime in 10% FBS.

EL4 cells [3] = assay: EL4 cytotoxicity, MTT assay; format: cell-based
Procedure: EL4 Cytotoxicity. EL4 cells (ATCC, Rockville, Md.) were plated at 10 k cells per well in a 96-well plate. The plated cells were treated in triplicate for 24, 48, or 72 hours with a range of concentrations of 0.001 μg/mL DOX or DOX equivalent to 10 μg/mL, followed by cellular viability analysis via MTT assay. Cells were incubated at 37° C., 5% CO2, and 100% humidity.
EL4 cells were treated in triplicate for 24, 48, and 72 hours with a range of concentrations, followed by cellular viability analysis via an MTT assay.

[4] = Pharmacokinetics in EL4-challenged C57BL/6 mice; format: in vivo
Procedure: Pharmacokinetics. […] Blood samples were collected from the saphenous vein of the mice at each time point, spun down in a serum collection tube, and the resultant supernatant was analyzed in acidified alcohol for DOX fluorescence using the Multi-Mode reader.
The mice were 6-8-week-old female mice.

[5] = Complete blood count and liver enzyme panel; format: in vivo; conditions: 20 mg/kg DOX or DOX equiv., tail vein, 24 h p.i., C57BL/6 mice, n=3
Procedure: Hematotoxicity and Liver Enzyme Panel. The mice used in this study were 6-12 week-old female C57BL/6/027 mice (Charles River Laboratories, Wilmington, Mass., USA). The mice were administered treatment via tail vein injection. After 24 h, complete blood count (CBC), and liver enzyme levels were measured. Blood for CBC was collected by saphenous vein collection, mixed with EDTA, and analyzed with a hematology analyzer for white blood cells (WBC), red blood cells (RBC), hemoglobin (Hgb), platelets (Plt) and hematocrit (HCT). For the liver enzyme panel, serum was isolated from blood and sent to IDEXX Laboratories, Inc. (Westbrook, Me.) for alkaline phosphatase (ALP), aspartate aminotransferase (AST), alanine aminotransferase (ALT), and total bilirubin analysis.
Complete blood count and liver enzyme panel of DOX/DNA and DOX. A complete blood count and liver enzyme panel were conducted in C57BL/6 mice treated with 20 mg/kg DOX, 20 mg/kg DOX equiv. of DOX/DNA, PBS, or 120 mg/kg DNA, n=3. […] After 24 h p.i., complete blood count (CBC), and liver enzyme levels were measured. Blood was collected by saphenous vein collection, mixed with EDTA, and analyzed with a hematology analyzer for white blood cells (WBC), red blood cells (RBC), hemoglobin (Hgb), platelets (Plt) and hematocrit (HCT). […]

EL4 cells [6] = assay: Endocytosis inhibition, EL4 cellular uptake; format: cell-based; conditions: inhibitors CPZ, Filipin III, EIPA, NaN3, PS2 or 4° C., 1 hour treatment
Procedure: Endocytosis Inhibition. EL4 DOX uptake from DOX or DOX/DNA treatment after exposure to inhibitors NaN3 (120 mM), PS2 (12 μg/mL), Filipin III (5 μg/mL), CPZ (20 μM), EIPA […], or 4° C. was measured using flow cytometry or spectrofluorimetry. Briefly, cells were primed for 15 minutes with the inhibitors before being treated for 1 hour with DOX or DOX/DNA. Cells containing DOX or DOX/DNA were counted with the flow cytometer using yellow fluorescence, and cells containing DOX/DNA were counted using spectrofluorimetry. Fluorescence was measured using a Guava® easyCyte™ Flow Cytometer (Millipore Sigma, Burlington, Mass.) or the Multi-Mode reader (Biotek Instruments, Winooski, Vt.).
Endocytosis inhibition and the effect on DOX/DNA and DOX uptake. The effect of inhibitors CPZ (20 μM), Fillipin III […], EIPA (20 μM), and various combinations thereof, or 4° C. on EL4 cellular uptake was evaluated for DOX/DNA (see FIG. 22). Chlorpromazine (CPZ) is a clathrin-dependent pathway inhibitor. […] The concentrations chosen for the assay were determined using a dose-response assay for each inhibitor.
DOX uptake by EL4 cells was tested with inhibitors: NaN3 (120 mM), PS2 (12 μg/mL), Filipin III (5 μg/mL), EIPA (20 μM), and 4° C. Uptake was measured using flow cytometry. […] Cells containing DOX were counted with the flow cytometer using yellow fluorescence.

[7] = Titration of DOX, DNA and DOX/DNA; format: physicochemical
Procedure: Titration of DOX, DNA, and DOX/DNA using a weak base. DOX, DNA or DOX/DNA were made in water at an initial volume of 1 mL. DOX equiv. at 600 μg/mL. The pH was then brought down below 2 with 1 M HCl, then the pH was adjusted higher using small volumes (100 μL or 20 μL) of 0.1 M NaOH.

[8] = Acute toxicity survival in C57BL/6 mice; conditions: 40 mg/kg dose, n=7

Stability in water or PBS [1]: largely stable
Substance: Deoxyribonucleic acid [DNA]
Degradation in serum [2]: degraded serum in a time dependent manner; also recorded: degraded overtime

Substance: Doxorubicin
IC50 (EL4 cells [3]; 24 h incubation): 0.313 µg/mL | IC50 (EL4 cells [3]; 24 h incubation, read-out: IC50): 576 nM | IC50 (EL4 cells [3]; 48 h incubation): 0.093 µg/mL | IC50 (EL4 cells [3]; 72 h incubation): 0.048 µg/mL | Blood circulation residence half-life T1/2 ([4]; 20 mg/kg DOX or DOX equiv. i.v., n=3): 3 min | Time of absorption by the tissue ([4]; 20 mg/kg i.v.): ~15 min | Effect on circulating blood cells and liver enzymes [5]: greater impact | Cellular uptake pathway (EL4 cells [6]): primarily via membrane fusion | pKa (amine) [7]: 8.46 | pKa (estimated) [7]: 9.46 | pKa (phenol) [7]: 7.34 | Acute toxicity [8]: acute toxicity (cardiac arrest)
